Columns and labels:
[1] = test system: methicillin resistance Staphylococcus aureus (MRSA); assay: ultrasensitive radial diffusion assay, MRSA; assay type: cell-based; design: antimicrobial activity according to pH, MRSA / antimicrobial activity according to NaCl, MRSA: unit not given here; conditions: for antimicrobial activity to MRSA strain (diameter of clear zone): according to the concentration of the peptides, FIG. 9A, 9C
Procedure: (§1) In order to measure the antimicrobial activity of acid extracts of Halocynthia aurantium obtained in the above Example <1-1>, the present inventors performed ultrasensitive radial diffusion assay. Particularly, analyzed 150 fractions eluted in the above Example <1-1> 5 times each. Took 100 μl from 2 ml of each fraction and concentrated thereof with a vacuum centrifugation (Centra Evaporator, Bioneer, Korea), which was suspended in 5 μl of 0.01% acetic acid solution. Meanwhile, prepared agarose plate including wells 3 mm in diameter by adding methicillin resistance Staphylococcus aureus (referred as “MRSA” hereinafter, Seoul Women's University, Korea CCARM3001) of mid-logarithmic phase to gel comprising sterilized citrate phosphate buffer (9 mM sodium phosphate, 1 mM sodium citrate, pH 7.4), 1% (w/v) type 1 agarose (low electroendosmosis agarose) (A 6013, Sigma) and 3% tryptic soy broth (TSB, Difco, Detroit, Mich., USA). Loaded the above fractions onto the wells of agarose plate containing the above bacteria. Reacted thereof for 3 hours to make the peptides spread into the agarose gel. Added 10 ml of overnutrition medium comprising 6% TSB and 1% agarose gel thereto. Cultured the above plate for overnight until the colonies of the above bacteria were formed. Confirmed the antimicrobial activity of the loaded peptide by measuring the diameter of clearing zone formed around the loaded peptide fraction.
(§2) The present inventors performed ultra-sensitive radical diffusion assay with synthetic peptides prepared in the above Example <2-2>. Particularly, measured antimicrobial activity of each 15Hc, di-15Hc, 18Hc, di-18Hc, halocidin, magainin 1 (Sigma) (control group) and buforin 2 (Sigma) (comparative group) against MRSA and multi drug resistance Pseudomonas aeruginosa (referred as “MDRPA” hereinafter)(Seoul Women's University CCARM2002) according to the concentration of the peptides.
(§3) Particularly, adjusted the pH of media to 7.4, 6.5 and 5.5 respectively by adding HCl, which was checked with a pH meter, and performed radical diffusion assay with the same method as the above Example 1 to investigate the antimicrobial activity to MRSA and Enterococcus faecalis.
(§4) Particularly, changed the basic condition of media by adding 100 mM NaCl, 150 mM NaCl and 200 mM NaCl respectively, and investigated the antimicrobial activity to MRSA and Enterococcus faecalis by radical diffusion assay.

Enterococcus faecalis = assay: radial diffusion assay, Enterococcus faecalis; assay type: cell-based; design: unit not given here
Procedure: as §1, §3, §4

[2] = test system: multi drug resistance Pseudomonas aeruginosa (MDRPA); assay: ultra-sensitive radial diffusion assay, MDRPA; assay type: cell-based; conditions: according to the concentration of the peptides; FIG. 9B, 9D
Procedure: as §1, §2

human erythrocytes = assay type: cell-based
Procedure: In order to investigate […] of halocidin, the present inventors performed hemolytic assay. Particularly, mixed 20 μl of peptide diluted to 100, 50, 25, 12.5, 6.25, 3.125 μg/ml and 180 μl of 2.5% (V/V) human erythrocytes in PBS. Used melittin (Sigma) and clavanin AK, a congener in which clavanin A residue was substituted, for comparative group, and 0.01% acetic acid for control group. After reacting the mixture at 37° C. for 30 minutes, added 600 μl of PBS into each tube. Centrifuged the solution at 10,000 g for 3 minutes and separated supernatants. Measured OD at 540 nm and calculated the hemolytic activity (%) according to the below <Mathematical Formula 1>.

[3] = test system: Gram negative bacteria such as Pseudomonas aeruginosa, Salmonella cholerasuis, Salmonella parotyphi A, E. coli K112 and E. coli DH5α; assay: radial diffusion assay, Gram-negative bacteria; assay type: cell-based; conditions: FIG. 12-14
[4] = test system: Gram-positive bacteria such as Staphylococcus aureus, Micrococcus luteus, Enterococcus faecalis, Bacillus subtilus and MRSA; assay: radial diffusion assay, Gram-positive bacteria; assay type: cell-based; conditions: FIG. 15-17
Procedure: In order to measure the antimicrobial activity of acid extracts of Halocynthia aurantium obtained in the above Example <1-1>, the present inventors performed ultrasensitive radial diffusion assay. Particularly, analyzed 150 fractions eluted in the above Example <1-1> 5 times each. Took 100 μl from 2 ml of each fraction and concentrated thereof with a vacuum centrifugation (Centra Evaporator, Bioneer, Korea), which was suspended in 5 μl of 0.01% acetic acid solution. Meanwhile, prepared agarose plate including wells 3 mm in diameter by adding methicillin resistance Staphylococcus aureus (referred as “MRSA” hereinafter, Seoul Women's University, Korea CCARM3001) of mid-logarithmic phase to gel comprising sterilized citrate phosphate buffer (9 mM sodium phosphate, 1 mM sodium citrate, pH 7.4), 1% (w/v) type 1 agarose (low electroendosmosis agarose) (A 6013, Sigma) and 3% tryptic soy broth (TSB, Difco, Detroit, Mich., USA). Loaded the above fractions onto the wells of agarose plate containing the above bacteria. Reacted thereof for 3 hours to make the peptides spread into the agarose gel. Added 10 ml of overnutrition medium comprising 6% TSB and 1% agarose gel thereto. Cultured the above plate for overnight until the colonies of the above bacteria were formed. […]

MRSA strain = assay: colony counting assay, MRSA; assay type: cell-based, Staphylococcus aureus; conditions: peptide 5 μg/ml, 5 and 15 minutes; FIG. 10
Procedure: (§5) In order to investigate antimicrobial activity of halocidin, the present inventors performed colony counting assay. Particularly, adjusted the final concentration of the peptide to 5 μg/ml by mixing the peptide and MRSA strain or MDRPA strain of mid-log phase in sterilized 10 mM sodium phosphate buffer (pH 7.4) containing 0.3 mg/id of TSB powder. Adjusted the final volume of the above mixture to 100 μl, and then let it be pre-reacted in a 37° C. shaking water bath for 5 and 15 minutes each. Collected 20 μl of pre-reacted solution and loaded thereof onto 1.5% bacto-agar plate (Difco). Induced reaction for overnight and counted the number of formed colonies on the above plate, from which measured the antimicrobial activity. Used magainin 1 and buforin 2 for comparative group, and 0.01% acetic acid for control group.

MDRPA strain = assay: colony counting assay, MDRPA; assay type: cell-based, Pseudomonas aeruginosa; conditions: peptide 5 μg/ml, 5 and 15 minutes; FIG. 10
Procedure: as §5

Row | Substance | antimicrobial activity according to NaCl, MRSA ([1]; NaCl 100 mM) | antimicrobial activity according to NaCl, MRSA ([1]; NaCl 150 mM) | antimicrobial activity according to NaCl, MRSA ([1]; NaCl 200 mM) | antimicrobial activity according to pH, MRSA ([1]; pH = 5.5) | antimicrobial activity according to pH, MRSA ([1]; pH = 6.5) | antimicrobial activity according to pH, MRSA ([1]; pH = 7.4) | antimicrobial activity according to NaCl, Enterococcus faecalis (Enterococcus faecalis; NaCl 100 mM) | antimicrobial activity according to NaCl, Enterococcus faecalis (Enterococcus faecalis; NaCl 150 mM) | antimicrobial activity according to NaCl, Enterococcus faecalis (Enterococcus faecalis; NaCl 200 mM) | antimicrobial activity according to pH, Enterococcus faecalis (Enterococcus faecalis; pH = 5.5) | antimicrobial activity according to pH, Enterococcus faecalis (Enterococcus faecalis; pH = 6.5) | antimicrobial activity according to pH, Enterococcus faecalis (Enterococcus faecalis; pH = 7.4) | antimicrobial activity to MDRPA strain (diameter of clear zone) [2] | hemolytic activity (human erythrocytes) | antimicrobial activity to Gram-negative bacteria [3] | antimicrobial activity to Gram-positive bacteria [4] | antimicrobial activity to MRSA strain (diameter of clear zone) [1] | antimicrobial activity by colony counting, MRSA (MRSA strain) | antimicrobial activity by colony counting, MDRPA (MDRPA strain)
1 | Magainin 1 (GIGKFLHSAGKFGKAFVGEIMKS; Magainin-1; UniProt P11006 37-59, looked up) [magainin 1 (Sigma), control/comparative antimicrobial peptide] | >64 | >64 | >64 | >64 | >64 | >64 | >64 | >64 | >64 | >64 | >64 | >64 | proved to have antimicrobial activity |  |  |  |  |  | 
2 | 15Hc: 15-amino-acid monomer of halocidin; 18Hc lacking three N-terminal amino acids, SEQ. ID. No 2 (WLNALLHHGLNCAKG; PEPTIDE (1)..(1) 15mer of halocydin; listed as Halocynthia aurantium) [Peptide 15Hc, 15-amino-acid monomer of halocidin; ID; No 2] |  |  |  |  |  |  |  |  |  |  |  |  | higher antimicrobial activity than comparative group | 0% | hardly showed or had minimum antimicrobial activity | low antimicrobial activity |  |  | 
3 | WLNALLHHGLNCAKGVLA (PEPTIDE (1)..(1) 18mer of halocydin; listed as Halocynthia aurantium) [Peptide 18Hc, ID; No 1] |  |  |  |  |  |  |  |  |  |  |  |  | higher antimicrobial activity than comparative group | 9% | hardly showed or had minimum antimicrobial activity | low antimicrobial activity | higher antimicrobial activity than buforin 2 | high antimicrobial activity | high antimicrobial activity
4 | KWLNALLHHGLNCAKGVLA (PEPTIDE (1)..(19) 19mer of halocydin; listed as Halocynthia aurantium) [K(18 + 1)Hc, ID; No 9] | 16-32 | 16-32 | 32-64 | 32-64 | 16-32 | 16-32 | 16-32 | 16-32 | 16-32 | 16-32 | 16-32 | 8-16 |  |  |  |  |  |  | 
5 | Secrofin A | >64 | >64 | >64 | >64 | >64 | >64 | >64 | >64 | >64 | >64 | >64 | >64 |  |  |  |  |  |  | 
6 | Buforin 2 | >64 | >64 | >64 | >64 | >64 | >64 | >64 | >64 | >64 | >64 | >64 | >64 | proved to have antimicrobial activity |  |  |  | proved to have antimicrobial activity |  | 

Reference: US7504380B2, “Antimicrobial peptide isolated from halocynthia aurantium” (Industry-Academic Cooperation Foundation, Hoseo University, priority 2002, dated 2009)
